Measured values: PubChem BioAssay (NCI)
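Growth conditions: 96-well plates. Treatment: test compound, 48 hours, 5 concentrations. Analysis: linear interpolation between bracketing concentrations; unreached endpoints set to highest concentration. GI50 is the concentration that inhibits growth by half. TGI marks complete inhibition of growth.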

How the values were obtained:
Assay in all cases: DTP human tumour cell line panel, 48 h
ACHN renal = tested on: ACHN renal
LOX IMVI melanoma = tested on: LOX IMVI melanoma
PC-3 prostate = tested on: PC-3 prostate
M14 melanoma = tested on: M14 melanoma
HOP-62 NSCLC = tested on: HOP-62 NSCLC
SF-539 CNS = tested on: SF-539 CNS
786-0 renal = tested on: 786-0 renal
RPMI-8226 leukemia = tested on: RPMI-8226 leukemia
COLO 205 colon = tested on: COLO 205 colon
EKVX NSCLC = tested on: EKVX NSCLC

Structure (SMILES)	GI50 (ACHN renal) [µM]	TGI (ACHN renal) [µM]	GI50 (LOX IMVI melanoma) [µM]	TGI (LOX IMVI melanoma) [µM]	GI50 (PC-3 prostate) [µM]	TGI (PC-3 prostate) [µM]	GI50 (M14 melanoma) [µM]	TGI (M14 melanoma) [µM]	GI50 (HOP-62 NSCLC) [µM]	TGI (HOP-62 NSCLC) [µM]	GI50 (SF-539 CNS) [µM]	TGI (SF-539 CNS) [µM]	GI50 (786-0 renal) [µM]	TGI (786-0 renal) [µM]	GI50 (RPMI-8226 leukemia) [µM]	TGI (RPMI-8226 leukemia) [µM]	GI50 (COLO 205 colon) [µM]	TGI (COLO 205 colon) [µM]	TGI (EKVX NSCLC) [µM]	GI50 (EKVX NSCLC) [µM]
Cc1cc(C)c(NC(=O)c2sc3nc4c(cc3c2N)CN(Cc2ccccc2)CC4)c(C)c1	6.31	> 100	5.01	18.1	3.13	> 100	2.89	31.5	7.73	> 100	2.44	7.79	3.48	> 100	3.18	35.1	2.98	10.1	–	–
CNS(=O)(=O)NNS(=O)(=O)c1ccc(Br)cc1	–	> 100	–	> 100	–	–	–	> 100	–	> 100	–	> 100	–	> 100	–	> 100	–	> 100	> 100	–
O=S(=O)(c1ccccc1)C1CN2OC1(S(=O)(=O)c1ccccc1)CC2c1ccc(Br)cc1 (stereo not given)	–	> 100	–	> 100	–	–	–	> 100	–	> 100	–	89.9	–	> 100	–	> 100	–	–	> 100	–
CCCN1CN(C(C(=O)N[C@@H]2C(=O)N3C2SC(C)(C)C3C(=O)O)c2ccc(O)cc2)CSC1=S (stereo not given in full)	–	> 100	–	> 100	–	–	–	> 100	–	> 100	–	> 100	–	> 100	–	> 100	–	> 100	> 100	–
Cc1cc(C)nc(NS(=O)(=O)c2ccc(NC(=O)c3cccc4c(Nc5ccc(S(N)(=O)=O)cc5)c5ccccc5nc34)cc2)n1	–	> 100	–	99.8	–	–	–	> 100	–	98.8	–	20.5	–	> 100	–	> 100	–	> 62.5	> 100	–
COc1ccc(-c2ccc(-c3ccc(C(=N)N)s3)s2)cc1	0.19	0.359	0.191	0.382	0.167	0.318	0.18	0.344	0.214	0.446	0.188	0.346	0.187	0.378	0.221	0.469	0.309	0.916	–	–
COc1c[c]([Hg][O]C(C)=O)c(OC)c(NC(=O)CC(C)=O)[c]1[Hg][O]C(C)=O	3.01	8.53	–	–	–	–	2.11	4.56	20	34.4	12.6	28.1	2.48	7.71	4.22	33.4	2.37	–	36.3	19.9
Cc1ccc(S(=O)(=O)c2ccc(N)cc2)cc1	–	> 100	–	–	–	–	–	> 100	–	> 100	–	> 100	–	> 100	–	> 100	–	–	> 100	–
CCN(Cc1ccccc1C)c1ccc(CO)c(Cl)c1	15.7	39.4	17.6	33	12.1	25.4	15.3	31.2	6.39	23.7	15	29.5	15	30.9	4.04	23.5	13.3	28.2	–	–
CC(C)C(=O)NS(=O)(=O)c1ccccc1	–	> 100	–	> 100	–	–	–	> 100	–	> 100	–	> 100	–	> 100	–	> 100	–	> 100	> 100	–
CC(C)C(=O)Nc1nc2c(ncn2C2OC(CO)C(O)C2O)c(=O)[nH]1 (stereo not given)	–	> 100	–	> 100	–	–	–	> 100	–	> 100	–	> 100	–	> 100	–	> 100	–	> 100	> 100	–
O=C1NC(=NCCc2cccc(Cl)c2)S/C1=C\c1ccc2ncccc2c1	> 25	> 25	–	–	> 25	> 25	> 25	> 25	> 25	> 25	> 25	> 25	> 25	> 25	> 25	> 25	> 25	> 25	–	–
O=Cc1ccc2c(c1-c1c(C=O)ccc3c1OCO3)OCO2	–	> 100	–	–	–	–	–	> 100	–	> 100	–	> 100	–	> 100	–	> 100	–	> 100	> 100	–
CC(C)N(C(=O)C12C3C4C1(I)C1C2C3(I)C41C(=O)N(C(C)C)C(C)C)C(C)C (stereo not given)	–	> 100	–	> 60.5	–	–	–	> 100	–	> 100	–	> 59.6	–	> 64.4	–	> 72.5	–	> 100	> 100	–
COC1(OC)CC2C(=O)N(Cc3ccccc3)C1C=C2S(=O)(=O)c1ccccc1 (stereo not given)	–	44.4	–	28.2	–	–	–	35	–	> 100	–	32.7	–	38.2	–	63.1	–	22	33.1	–
Cc1cc(NS(=O)(=O)c2ccc(Nc3c4ccccc4nc4c(C(=O)N5CCN(CCO)CC5)ccc(Cl)c34)cc2)no1	–	–	–	–	–	–	–	> 100	–	> 100	–	> 100	–	> 100	–	> 100	–	> 100	–	–
O=C(CSC1CCc2ccccc21)N/N=C/c1ccccc1O (stereo not given)	2.67	20	2.37	21.5	3.89	75.8	3.7	63	10.8	> 100	3.03	17.2	6.87	> 100	7.47	38.4	5.87	> 100	–	–
COc1ncc(-c2ccc3ncnc(Nc4cccc(Cl)c4)c3c2)cc1NS(=O)(=O)C1CC1	–	–	–	–	> 100	> 100	> 100	> 100	–	–	2.87	> 100	4.82	> 100	> 100	> 100	> 100	> 100	–	–
COC(=O)/C=C/c1c(CC=C(C)C)ncn1C	–	> 100	–	> 100	–	–	–	> 100	–	> 100	–	62.2	–	> 100	–	> 100	–	> 100	> 100	–
COC(=O)[C@H]1C=C[C@@H](C)n2c(=O)c3cc4ccccc4cc3c(=O)n21	–	> 100	–	> 100	–	–	–	> 100	–	> 100	–	> 100	–	> 100	–	> 100	–	> 100	> 100	–

Structure (SMILES)	GI50 (ACHN renal) [µM]	TGI (ACHN renal) [µM]	GI50 (LOX IMVI melanoma) [µM]	TGI (LOX IMVI melanoma) [µM]	GI50 (PC-3 prostate) [µM]	TGI (PC-3 prostate) [µM]	GI50 (M14 melanoma) [µM]	TGI (M14 melanoma) [µM]	GI50 (HOP-62 NSCLC) [µM]	TGI (HOP-62 NSCLC) [µM]	GI50 (SF-539 CNS) [µM]	TGI (SF-539 CNS) [µM]	GI50 (786-0 renal) [µM]	TGI (786-0 renal) [µM]	GI50 (RPMI-8226 leukemia) [µM]	TGI (RPMI-8226 leukemia) [µM]	GI50 (COLO 205 colon) [µM]	TGI (COLO 205 colon) [µM]	TGI (EKVX NSCLC) [µM]	GI50 (EKVX NSCLC) [µM]
O=C(/C=C/c1ccccc1Cl)NC1C=Nc2ccc([N+](=O)[O-])cc2NC1 (stereo not given)	–	> 100	–	> 100	–	–	–	> 100	–	> 100	–	> 100	–	> 100	–	> 100	–	> 100	> 100	–
O=P1(c2ccccc2)CCCCC1	–	> 100	–	> 100	–	–	–	> 100	–	> 100	–	> 100	–	> 100	–	> 100	–	> 100	> 100	–
COc1cc(C=O)c(-c2cc(OC)c(OC)cc2C=O)cc1OC	–	> 100	–	66	–	–	–	> 100	–	> 100	–	> 100	–	> 100	–	> 100	–	> 100	> 100	–
N#CC(C(=O)C(=O)Nc1ccc(Cl)cc1)c1ccccc1 (stereo not given)	–	> 100	–	> 100	–	–	–	> 100	–	> 100	–	> 100	–	> 100	–	> 100	–	> 100	> 100	–
CC(=O)O[C@H]1CCC2[C@@H]3CCC4Nc5[nH]ncc5C[C@]4(C)C3CC[C@@]21C (stereo not given in full)	–	> 100	–	> 100	–	–	–	> 100	–	> 100	–	> 100	–	> 100	–	> 100	–	> 100	> 100	–
Cn1cc(C2=C(c3cccc(Br)c3)C(=O)NC2=O)c2ccccc21	14.5	> 25	12	> 25	8.53	> 25	17.1	> 25	18.3	> 25	12.5	> 25	12.1	> 25	20.1	> 25	13.9	> 25	–	–
CCCO/S(=N\S(=O)(=O)c1ccccc1)c1ccccc1[N+](=O)[O-] (stereo not given)	–	> 100	–	> 100	–	–	–	> 100	–	> 100	–	> 100	–	> 100	–	> 100	–	> 100	> 100	–
COc1ccc(-n2c(C)cc(-c3ccccc3)c2C)cc1	2.82	33.3	2.55	11.9	2.22	> 100	2.59	9.14	6.68	67.8	2.96	17.4	1.94	4.85	1.49	5.02	2.42	5.95	–	–
CC(=O)[O][Ga]([Br])[O]C(C)=O	> 100	> 100	> 100	> 100	–	–	> 100	> 100	–	–	> 100	> 100	> 100	> 100	> 100	> 100	> 100	> 100	–	–
COc1cc(OC)c(/C=C/c2c3ccccc3cc[n+]2C)c(OC)c1	10.9	> 100	2.01	5.9	0.943	> 37.9	2.62	15.4	3.52	> 33.7	2.1	9.17	7.37	> 100	0.377	6.92	0.774	2.95	–	–
COc1ccc(O)c(C(=O)c2ccc(C(=O)N[C@H]3CCCNC[C@@H]3NC(=O)c3ccncc3)cc2)c1F	11.5	> 25	7.38	> 25	> 21.6	> 25	6.43	> 22.4	4.39	> 21.1	0.624	7.68	3.07	> 20.2	10.3	> 25	> 25	> 25	–	–
c1ccc2nc3c(nc2c1)sc1ccccc13	–	35.7	–	> 100	–	–	–	> 100	–	73.6	–	30.9	–	64.2	–	> 100	–	> 100	96.2	–
Cc1nc([N+](=O)[O-])cn1CC(=N)N	–	> 100	–	> 100	–	–	–	> 100	–	> 100	–	> 100	–	> 100	–	> 100	–	> 100	> 100	–
CN[C@@H](C)[C@@H](NC)c1ccccc1	–	> 100	–	> 100	–	–	–	> 100	–	–	–	> 100	–	> 100	–	> 100	–	> 100	> 100	–
CC(C)N(CCn1c2c3ccccc3ccc2c2oc(=O)c3ccccc3c21)C(C)C	–	> 100	–	> 100	–	–	–	> 100	–	98.7	–	> 74.1	–	> 100	–	> 100	–	> 100	> 100	–
CC1COC(C)(C)P(=O)(c2ccccc2)C1 (stereo not given)	–	> 100	–	> 100	–	–	–	> 100	–	> 100	–	> 100	–	> 100	–	> 100	–	> 100	> 100	–
O=[N+]([O-])c1ccc(N2N=C(c3ccc(NCc4nc5ccccc5[nH]4)cc3)CC2c2ccco2)cc1 (stereo not given)	–	> 100	–	41.6	–	–	–	61.3	–	> 100	–	84.4	–	> 100	–	94.5	–	77.9	–	–
CCOP(=O)(OCC)OC1C=CC2CCC1C2 (stereo not given)	–	> 100	–	> 100	–	–	–	> 100	–	> 100	–	> 100	–	> 100	–	54.2	–	> 100	> 100	–
O=C1OCC2C1C1c3ccccc3C(O)c3ccccc3C21 (stereo not given)	–	> 100	–	> 100	–	–	–	> 100	–	> 100	–	> 100	–	> 100	–	> 100	–	> 100	> 100	–
